# Read-outs that look alike come from different tables or passages of the source.
# Experiments:
# [1] = test system: Wistar strain of male rats; assay: Anti-pyretic activity (dry-yeast-induced fever); type: in vivo, rat (Wistar); conditions: oral (dose not given), up to 4 hours after administration
# Protocol: (§1) Next, several tests for determining the pharmacological properties, in that acute toxicity, anti-pyretic activity, analgesic activity and anti-inflammatory activity of the present 1,1,3,5-substituted biuret compounds of the formula (1) were conducted and the test results are shown in Table (2). In the tests, each compounds to be tested was used as a suspension in 0.25% carboxymethylcellulose solution. Methods for testing are explained as follows:
# According to the method reported by Tanabe [Folia Pharmacologia Japonica, Vol. 73, pp. 803 (1977)], the Wistar strain of male rats (150-180 g, body weight) were used as test animals. The rats were fasted overnight, and 1 ml/100 g (body weight) of 10% dry-yeast suspension were subcutaneously injected on the back of the rats. Five hours after the injection, the test compound was administered orally, then the body temperature of the rat was measured at time sequences. Anti-pyretic activity of the test compound was determined as the FI (febril index) by integrating pyrogenetic curve up to 4 hours after the administration of the test compound with time, and indicated as inhibitory ratio (%) shown by the following formula, [formula]
# ddy strain of male mice [2] = assay: Analgesic activity, Haffner method (morphine threshold dose, clamp); type: in vivo, mouse (ddy)
# Protocol: as §1
# According to the modified method reported by Fujimura et. al., [Bulletin of the Institute for Chemical Research, Kyoto University, No. 25, pp. 36 (1951)], the ddy strain of male mice (body weight, 20-25 g) were used as test animals. The mice were fasted overnight, 100 mg/kg body weight of the test compound was administered orally, then 45 minutes after the administration, the threshold amount (1.5-2.5 mg/kg body weight) of morphine hydrochloride was injected subcutaneously. Then 1-hour pain reaction of the mouse caused by a clamp was observed. Analgesic activity of the test compound was calculated as the inhibitory ratio (%). In Table 2, the values in parentheses show the data obtained from the test by using the dosage other than 100 mg/kg body weight. Further, the values indicated with Δ marks show 50% effective dose, ED50 (mg/kg body weight).
# ddy strain of male mice [3] = assay: Analgesic activity, acetic acid-induced stretching method; type: in vivo, mouse (ddy); conditions: for inhibition in vivo at 100 mg/kg: po
# Protocol: as §1
# According to the method reported by Koster et al., [Fed. Proc., Vol. 18, pp. 412 (1959)], the ddy strain of male mice (body weight, 20-25 g) were used as test animals. The mice were fasted overnight, 100 mg/kg body weight of the test compound was administered orally, then 1 hour after the administration, 0.2 ml of 0.7% acetic acid solution was injected intraperitoneally. The acetic acid-induced stretching symptom of mouse was observed. Analgesic activity of the test compound was calculated as the inhibitory ratio (%). In Table 2, the values in parentheses show the data obtained from the test by using the dosage other than 100 mg/kg body weight. Further, the values indicated with Δ marks show 50% effective dose, ED50 (mg/kg body weight).
# [4] = test system: Wistar strain of male rats; assay: Anti-inflammatory activity (acute carrageenin-induced inflammatory test, hindpaw); type: in vivo, rat (Wistar)
# Protocol: as §1
# According to the method of acute carrageenin-induced inflammatory test [Folia Pharmacologia Japonica, Vol. 56, pp. 575 (1960)], the Wistar strain of male rats (body weight, 150-180 g) were used as test animals. The rats were fasted overnight, 100 mg/kg body weight of the test compound was administered orally, then 1 hour after the administration, 0.1 ml of 1% carrageenin solution, as the inflammation inducing agent, was injected subcutaneously to the hindpaw of the rat and the volume of the hindpaw was measured at time sequences, Anti-inflammatory activity of the test compound was calculated as inflammation inhibitory ratio (%) at 3 hours after the injection of inflammation inducing agent.
# ddy strain of male mice [5] = assay: Acute toxicity (oral, mice, 7 days observation); type: in vivo
# Protocol: as §1
# The ddy strain of male mice (body weight, 20-25 g) were used as test animals. The mice were fasted overnight and the compound to be tested was administered orally. […] The lethal dose (mg/kg, body weight) of the test compound was determined in connection with the death number of mice/the number of mice tested. In Table 2, the values indicated with Δ marks are 50% lethal dose, LD50 (mg/kg, body weight).
# [6] = 100 mg/kg oral, 1 hour before acetic acid
# [7] = 100 mg/kg oral, 45 minutes before morphine hydrochloride
# [8] = 100 mg/kg oral, 3 hours after carrageenin
# [9] = Rattus norvegicus, po, 3 h, read-out: Anti-inflammatory activity, inflammation inhibitory ratio
# [10] = Mus musculus, 100 mg/kg oral, 45 minutes before morphine hydrochloride, read-out: Analgesic activity, Haffner method, inhibitory ratio
# [11] = Mus musculus, read-out: Analgesic activity, acetic acid-induced stretching method, inhibitory ratio
Structure (SMILES),"Anti-pyretic activity, inhibitory ratio (febril index) [1] [%]",Acute toxicity: death number of mice/number of mice tested (ddy strain of male mice [5]; 500 mg/kg oral),"Analgesic activity, Haffner method, inhibitory ratio (ddy strain of male mice [2]; [7]) [%]",inhibition in vivo at 100 mg/kg (ddy strain of male mice [2]; [10]) [%],inhibition in vivo at 100 mg/kg (ddy strain of male mice [3]; [11]) [%],other results
"CN(C)C(=O)N(C)C(=O)Nc1cccc(Cl)c1 [compound 11, 1,1,3-Trimethyl-5-(3-chlorophenyl)biuret]",43,,,,,"Analgesic activity, Haffner method, inhibitory ratio (ddy strain of male mice [2]; 200 mg/kg oral): 75%; Analgesic activity, acetic acid-induced stretching method, inhibitory ratio (ddy strain of male mice [3]; [6]): 62.5%; Anti-inflammatory activity, inflammation inhibitory ratio ([4]; 100 mg/kg oral, (2 hours)): 30%"
"CN(C)C(=O)N(C)C(=O)Nc1ccc([N+](=O)[O-])cc1 [compound 20, 1,1,3-Trimethyl-5-(4-nitrophenyl)biuret]",26,2/4,50,,,"Anti-inflammatory activity, inflammation inhibitory ratio [4, 8]: 32%"
"COc1cc(NC(=O)N(C)C(=O)N(C)C)cc(OC)c1OC [compound 25, 1,1,3-Trimethyl-5-(3,4,5-trimethoxyphenyl)biuret]",23,0/4,62.5,,,"Acute toxicity: death number of mice/number of mice tested (ddy strain of male mice [5]; 1000 mg/kg oral): 2/4; Anti-inflammatory activity, inflammation inhibitory ratio [4, 8]: 30%"
"Cc1ccccc1NC(=O)N(C)C(=O)N(C)C [compound 26, 1,1,3-Trimethyl-5-(2-methylphenyl)biuret]",41,,50,,,"Analgesic activity, acetic acid-induced stretching method, inhibitory ratio (ddy strain of male mice [3]; [6]): 37.5%; Anti-inflammatory activity, inflammation inhibitory ratio [4, 8]: 29%"
"CC(=O)c1ccc(NC(=O)N(C)C(=O)N(C)C)cc1 [compound 33, 1,1,3-Trimethyl-5-(4-acetylphenyl)biuret]",36,0/4,37.5,,,"Acute toxicity: death number of mice/number of mice tested (ddy strain of male mice [5]; 1000 mg/kg oral): 4/4; Anti-inflammatory activity, inflammation inhibitory ratio ([4]; 100 mg/kg oral, (2 hours)): 31%"
"CN(C)C(=O)N(C)C(=O)NC1CCCCC1 [compound 35, 1,1,3-Trimethyl-5-cyclohexylbiuret]",,,25,,,"Analgesic activity, acetic acid-induced stretching method, inhibitory ratio (ddy strain of male mice [3]; 200 mg/kg oral): 87.5%; inhibition in vivo at 100 mg/kg [4, 9]: 24%"
"CCCCN(C)C(=O)NC(=O)Nc1ccccc1 [compound 47, 1-Methyl-1-n-butyl-5-phenylbiuret]",,,,25,50,"Acute toxicity: death number of mice/number of mice tested (ddy strain of male mice [5]; 2000 mg/kg oral): 0/4; inhibition in vivo at 100 mg/kg ([4]; Rattus norvegicus, 100 mg/kg oral, 3 hours after carrageenin, read-out: Anti-inflammatory activity, inflammation inhibitory ratio): 20%"
"CN(C(=O)Nc1ccccc1)C(=O)N1CC1 [compound 66, 1,1-Ethylene-3-methyl-5-phenylbiuret]",28,4/4,,25,62.5,Acute toxicity: death number of mice/number of mice tested (ddy strain of male mice [5]; 250 mg/kg oral): 2/4
"O=C(NC(=O)N1CCCC1)Nc1ccccc1 [compound 67, 1,1-Tetramethylene-5-phenylbiuret]",,,,37.5,50,"Acute toxicity: death number of mice/number of mice tested (ddy strain of male mice [5]; 2000 mg/kg oral): 0/4; inhibition in vivo at 100 mg/kg [4, 9]: 33%"
"O=C(NC(=O)N1CCOCC1)Nc1ccccc1 [compound 71, 1,1-(3-Oxapentamethylene)-5-phenylbiuret]",,,,,,"Acute toxicity: death number of mice/number of mice tested (ddy strain of male mice [5]; mouse, in vivo): 0/4; inhibition in vivo at 200 mg/kg (ddy strain of male mice [2]; Mus musculus, 200 mg/kg oral, read-out: Analgesic activity, Haffner method, inhibitory ratio): 50%; inhibition in vivo at 200 mg/kg (ddy strain of male mice [3]; Mus musculus, 200 mg/kg oral, read-out: Analgesic activity, acetic acid-induced stretching method, inhibitory ratio): 40%; inhibition in vivo at 200 mg/kg [4, 9]: 23%"
"CN(C(=O)Nc1ccccc1)C(=O)N1CCOCC1 [compound 73, 1,1-(3-Oxapentamethylene)-3-methyl-5-phenylbiuret]",17,,,25,50,"Acute toxicity: death number of mice/number of mice tested (ddy strain of male mice [5]; mouse, in vivo): 0/4"

# Source: US4371544A, “Pharmaceutical composition containing 1,1,3,5-substituted biuret compound” (Taiho Pharmaceutical Company Limited, priority 1979, dated 1983)
